Laboratory results published in patent publication US9700042B2, “Nanoformulation of musk-derived bioactive ingredients for nanocosmetic applications” (priority 2014, dated 2017).

Tested on: tested microorganisms fungi and bacteria
Test: Anti-microbial activities (disc diffusion, all test organisms)
Assay type: cell-based
Settings: filter paper discs
Description: Pathogenic Fungi: Aspergillus niger, Aspergillus fumigatus, Aspergillus flavus, Fusarium oxysporum and Candida albicans were cultured on sabaroud dextrous agar media (Oxioid CM 41) at 25° C.
Pathogenic bacteria: Staphylococcus aureus and Pseudomonas aeroginosa were cultured on Mueller Hinton media (Oxioid CM 41) at 37° C.
Biological activity: Antimicrobial activities of the 3-hydroxyl p-Anisaldehyde (C8H8O3) and p-Hydroxy-acetophenone (C8H8O2) compounds were tested against the fungal species Aspergillus niger, Aspergillus fumigatus, Aspergillus flavus, Fusarium oxysporum and Candida albicans. […]
Antifungal activities: The agar disc diffusion method was used to evaluate the antifungal activities of the tested compounds (Bauer, A.W., et al., Antibiotic susceptibility testing by a standard single disk diffusion method, Amer. J. Clin. Pathol. 45:493-496 (1966)). […] The diameter of the inhibition zones were measured in millimeters after 4 days at 25±2° C. […]
Antibacterial activities: Antibacterial activities of the tested compounds were employed by used the agar disc diffusion method Hasenekoglu (1990). Suspension of the tested bacteria (10^6 CFU/μl ,O.D was measured calorimetry using spectrophotometer (Spectro, labomed, Inc.) at […]) were spread on Mueller Hinton Agar (Oxioid). […] The diameter of the inhibition zones were measured in millimeters after 24 h at 37° C. […]

CC(=O)c1ccc(O)cc1 [p-Hydroxyacetophenone]
Inhibition of growth of tested microorganisms (clear zones around discs): have the ability to inhibit the growth
